From patent publication US20050069999A1, “Sh3 domain binding inhibitors” (priority 2001, published 2005)

Legend:
[1] = target: T1, Sam68ΔC and Fyn-SH3 binding (Homo sapiens, UniProt Q07666); test: SH3 domain binding inhibition test 1: Sam68ΔC bound to Fyn-SH3 beads, Western blot; inhibition ratio from band intensity (Test Examples 1 and 4); parameters: species or system recombinant human Sam68ΔC; mouse recombinant Fyn SH3 domain; conditions: for inhibition at 60 µM / inhibition at 150 µM: read-out: The inhibition ratio (%) of the compound against SH3 domain binding
T1 construct: (Sam68ΔC) [Sam68(331-443): made by Santa Cruz Co.]; purchased Santa Cruz Sam68(331-443); Fyn(85-139) AC
T1 sequence (Q07666 331-443, stated change not applied): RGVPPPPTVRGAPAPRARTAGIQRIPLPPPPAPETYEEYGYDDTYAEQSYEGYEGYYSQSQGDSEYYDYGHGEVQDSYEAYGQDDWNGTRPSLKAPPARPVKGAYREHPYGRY
Description: (1) Treatment of Proteins Containing the Proline-Rich Sequences with the Compounds.
The recombinant human Sam68 containing the 2 proline-rich sequences at the C terminal out of 5 proline-rich sequences in Sam68 containing proline-rich sequences (Sam68ΔC) [Sam68(331-443): made by Santa Cruz Co.], 0.25 μg was added to 1 mL of RSB buffer (10 mmol/L Tris-HCl, pH 7.6, 10 mmol/L NaCl, 1.5 mmol/L MgCl2), which is a hypotonic buffer solution containing 0.1% BSA (bovine serum albumin) [bovine serum albumin (F-V): made by Nakaraitesk] to prepare a Sam68ΔC solution. The compound was dissolved in dimethylsulfoxide (DMSO) to prepare a 10 mmol/L solution in DMSO. […] The same amount of DMSO was added to each sample. The compound was subjected to the reaction with Sam68ΔC by incubating the mixture at 37° C. for 6 hours with rotation by a roller culture machine.
(2) Treatment of Proteins Containing the SH3 Domain with the Proteins Containing the Proline-Rich Sequences Treated with the Compounds.
The Sam68ΔC solution treated with the compound, which was obtained in (1), was applied to 5 μL of Fyn-SH3-agarose beads (Fyn-SH3 beads) [Fyn(85-139) AC; made by Santa Crutz Co.], which was a mouse recombinant protein of the Fyn SH3 domain containing the SH3 domain bound to agarose beads. The binding reaction of the Sam68ΔC reacted with the compounds with Fyn-SH3 beads containing the SH3 domain were carried out at 4° C. for 16 hours with slow rotation by the roller culture machine. After the reaction, a resulting complex of Sam68ΔC and Fyn-SH3 beads was precipitated by centrifugation at […] for 3 minutes at 4° C., and then 1 mL of the TritonX/Np40 extraction buffer containing detergents [50 mmol/L Tris-HCl buffer, pH 7.4, 150 mmol/L NaCl, 1 mmol/Lethylenediaminetetraacetic acid (EDTA), 1% TritonX-100, 0.5% Nonidet P-40] was added thereto. The mixture was rotated slowly at 4° C. for 10 minutes by the roller culture machine, and precipitated and washed twice in a similar manner to that as described above. To the complex of Sam68ΔC and Fyn-SH3 beads washed above, 30 μL of Lemery's sample buffer [Protein Chemistry I-Isolation and Purification, Tokyo Kagaku Dojin, p. 211 (1976)] was added, and then the mixture was mixed well and heated at 100° C. for 10 minutes. After precipitating the beads at 1000 ppm for 5 minutes at 25° C. by a centrifuge, the supernatant was subjected to 10% polyacrylamide gel electrophoresis.
(3) Detection of Sam68ΔC Bound to the Fyn-SH3 by Western Blotting.
Sam68ΔC in the supernatant was detected by Western blotting as follows. First, the resulting gel performed the electrophoresis, which was obtained in (2), was blotted onto a nitrocellulose membrane with pore size of 0.45 μm [Protran; made by Schleicher and Schuell Co.]. After non-specific binding of the membrane was blocked by incubating the membrane at 4° C. overnight in phosphate buffer (PBS) containing 0.25% gelatin and 0.2% Tween-20 (PBS-TG), the membrane reacted with mouse anti GST antibody conjugated with horse radish peroxidase (HRP) [GST (B-14) HRP; made by Santa Crutz Co.], which was diluted 1000 times with PBS-TG, for 2 hours. After washing with PBS containing 0.2% Tween 20 (PBS-T), the detection was carried out by the chemo-luminescence reaction using ECL reagent (Amersham Pharmacia Biotech Co.).
The inhibition ratios of the compound against the SH3 domain binding were calculated as follows based on the plot of the results of the Test Example 1. The intensity of the chemo-luminescent bands of Fyn-SH3 and Sam68ΔC developed on a film was measured by a gel-scanner (TYOBO). The relative intensity of Sam68ΔC band against the intensity of Fyn-SH3 band was obtained by dividing the Sam68ΔC band intensity by the Fyn-SH3 band intensity. The ratio of the Fyn-SH3 band intensity to the Sam68ΔC band intensity was set to be 100% when no compound was added. […]

HIV-1 LAI strain = test: HIV-1 growth inhibition test (RT assay) in MT2 cells; format: cell-based; conditions: MT2 cells, 3, 5, 7 and 9 days after infection; 1, 5, 10, 25 and 50 mmol/L as printed; FIGS. 9-11 Compound 1, FIGS. 12-14 PP2
Description: (1) HIV-1 Infection and Growth Inhibition Experiment.
MT2 cells (T cell strain) were suspended in RPMI1640 medium (GIBCO No.26140-076) supplemented with 10% fetal calf serum (GIBCO, No.26140-079) at 2×10^5 cells/mL and distributed into the each well of 24 well plates (24 well plate: Coster No. 3526) by 1 mL per well. HIV-1 LAI strain {pLAI that contains DNA clone of the whole genome [GeneBank accession No. K02013 Virology 185:661 (1991)] was transfected to HeLa cells by using FuGENE6 Transfection Reagent (Roche Co. No. 1814443), incubated for 2 days and the supernatant was used.} was inoculated to each well at a final concentration of 500 cpm/μL and incubated at 37° C. overnight (virus infection). […]
HIV-1 was determined by the RT assay (Reverse Transcriptase sassy) according to the method described in J. Virol., Vol. 38, p. […]
To 5 μL of the culture supernatant obtained in (1), 25 μL of RT cocktail {50 mmol/L Tris-HCl pH 7.5, 50 mmol/L EDTA, 75 mmol/L KCl, 5 mmol/L MgCl2, 5 μg/mL Poly(A) [Pharmacia, No. 27-4110-01], 1.6 μg/mL oligo(dT)12-18 [Pharmacia, No. 27-7858-01], 5 mmol/L DTT (dithiothreitol), 0.05% NP-40 and 10 PCi/ml [α-^32P]dTTP} was added, and the mixture was incubated at 37° C. for 2 hours. […] The amount of HIV-1 was measured as RT activity count (cpm/μL) with a MICROBRTA PLUS liquid scintillation counter (Perkin Elmer). […]

MT2 cells = test: Cyto-toxicity test, Trypan blue live cell count; format: cell-based; conditions: 10 μmol/L, incubated for 3 days
Description: MT2 cells (T cell strain) were suspended in RPMI1640 medium (GIBCO, No. 26140-076) supplemented with 10% fetal calf serum (GIBCO, No. 26140-079) at 2×10^5 cells/mL and distributed into each well of 96 well plates [96 well plate: Coster] at 100 μL per well. The compound was added to each well and incubated for 3 days. The cultures were observed under a microscope to examine the condition of cells and cells were harvested, stained with 0.4% Trypan blue (SIGMA, T-8154) and live cells were counted.

[2] = Concentration of the compound 20 μmol/L
[3] = Concentration of the compound 100 μmol/L
[4] = Concentration of the compound 60 μmol/L
[5] = Concentration of the compound 150 μmol/L

C[C@H]1C/C=C/[C@H]2[C@@H]3O[C@]3(C)[C@@H](C)[C@H]3[C@H](Cc4ccccc4)NC(=O)[C@]32OC(=O)O/C=C/[C@@](C)(O)C1=O [Compound 13, Cytochalasin E]
The inhibition ratio (%) of the compound against SH3 domain binding [1, 2]: 0% | The inhibition ratio (%) of the compound against SH3 domain binding [1, 3]: 21%

C/C1=C\CC(=O)OC23C(=O)NC(Cc4ccc(O)cc4)C2C(C)C2(C)OC2C3/C=C/CC(C)C1=O (stereo not drawn) [Compound 16]
inhibition at 60 µM [1, 4]: 67% | inhibition at 150 µM [1, 5]: 78%

COc1ccc(CC2NC(=O)C34OC(=O)OCCC(C)(O)C(=O)C(C)C/C=C/C3C3OC3(C)C(C)C24)cc1 (stereo not drawn) [Compound 17]
inhibition at 150 µM [1, 5]: 36%

C=C1C(C)C2C(Cc3ccc(OC)cc3)NC(=O)C23OC(=O)O/C=C/C(C)(O)C(=O)C(C)C/C=C/C3C1O (stereo not drawn) [Compound 18]
inhibition at 60 µM [1, 4]: 16% | inhibition at 150 µM [1, 5]: 67%

COc1ccc(CC2NC(=O)C34OC(=O)O/C=C/C(C)(O)C(=O)C(C)C/C=C/C3C(O)C(C)=C(C)C24)cc1 (stereo not drawn) [Compound 19]
inhibition at 150 µM [1, 5]: 40%

CC1=CC2/C=C(\C)CCC(O)C(O)/C=C/C(=O)OC23C(=O)NC(CC(C)C)C3C1C (stereo not drawn) [Compound 20]
inhibition at 60 µM [1, 4]: 92% | inhibition at 150 µM [1, 5]: 100%

CC1=CC2/C=C(\C)CCCC(O)/C=C/C(=O)OC23C(=O)NC(CC(C)C)C3C1C (stereo not drawn) [Compound 21]
inhibition at 60 µM [1, 4]: 64% | inhibition at 150 µM [1, 5]: 100%

CC1=CC(/C=C(\C)CCC=O)C2(C(=O)/C=C/C=O)C(=O)NC(CC(C)C)C2C1C (stereo not drawn) [Compound 22]
inhibition at 60 µM [1, 4]: 91% | inhibition at 150 µM [1, 5]: 100%

CC1=CC2/C=C(\C)CCC(=O)C(=O)CCC(=O)C23C(=O)NC(CC(C)C)C3C1C (stereo not drawn) [Compound 24, Aspochalasin A]
inhibition at 60 µM [1, 4]: 62% | inhibition at 150 µM [1, 5]: 80%

CC1=CC2/C=C(\C)CCC(O)C(=O)/C=C/C(=O)C23C(=O)NC(CC(C)C)C3C1C (stereo not drawn) [Compound 25, Aspochalasin B]
inhibition at 60 µM [1, 4]: 87% | inhibition at 150 µM [1, 5]: 100%

CC1=CC2/C=C(\C)CCC(O)C(O)/C=C/C(=O)C23C(=O)NC(CC(C)C)C3C1C (stereo not drawn) [Compound 26, Aspochalasin C]
inhibition at 60 µM [1, 4]: 92% | inhibition at 150 µM [1, 5]: 100%

CC1=CC2/C=C(\C)CCC(O)C(O)/C=C/C(=O)C23C(=O)NC(CC(C)C)C3C1C (stereo not drawn) [Compound 27, Aspochalasin D]
The inhibition ratio (%) of the compound against SH3 domain binding [1, 4]: 100% | The inhibition ratio (%) of the compound against SH3 domain binding [1, 5]: 100%

CC1=CC2/C=C(\C)CCC(O)C(O)C(O)CC(=O)C23C(=O)NC(CC(C)C)C3C1C (stereo not drawn) [Compound 28, Aspochalasin E]
inhibition at 60 µM [1, 4]: 31% | inhibition at 150 µM [1, 5]: 73%

CC(C)(C)n1nc(-c2ccc(Cl)cc2)c2c(N)ncnc21 [pp2, 4-amino-5-(4-chrolophenyl)-7-(tert-butyl)-pyrazolo[3,4-d]pyrimidine]
amount of HIV-1 (RT activity count) (HIV-1 LAI strain): increased

Mer-WF1726 [Compound 12]
The inhibition ratio (%) of the compound against SH3 domain binding [1, 2]: 39% | The inhibition ratio (%) of the compound against SH3 domain binding [1, 3]: 88%

UCS15A [Compound 1]
live cells (Trypan blue) (MT2 cells): live cells were not decreased | The inhibition ratio (%) of the compound against SH3 domain binding [1, 4]: 0% | The inhibition ratio (%) of the compound against SH3 domain binding [1, 5]: 46%
